# Results taken from paper PMC12198407, “Preclinical and first-in-human of purinostat mesylate, a novel selective HDAC I/IIb inhibitor, in relapsed/refractory multiple myeloma and lymphoma” (Signal Transduction and Targeted Therapy, 2025).
# Like-named read-outs stand apart in the source and are kept apart here.
# What was measured:
# [1] = Fertility, embryo and fetal developmental toxicity test; set-up: species or system SD rats; conditions: SD, rat, in vivo, intravenous
# Procedure: Male SD rats were administered intravenous injections of Purinostat Mesylate at doses of 3, 10, and 20 mg/kg every two days from 4 weeks prior to mating until the end of mating. Female SD rats received the same treatment from 2 weeks prior to mating until day 7 of pregnancy. The no observed adverse effect level (NOAEL) for males was less than 3 mg/kg, while for females it was 20 mg/kg. The NOAEL for reproductive toxicity in both male and female rats was 3 mg/kg, and the NOAEL for early embryonic development was less than 3 mg/kg.
# [2] = system: 8 MM and 8 lymphoma cell lines; test: Antiproliferation assay, cell line panel (CCK8); assay type: cell-based; conditions: Homo sapiens; 72 h, all 16 cell lines
# Procedure: (§1) PM, panobinostat, Pom and DXM were dissolved in DMSO and stored at -20°C freezer. Cells were seeded at a density of 1.0-3.0 × 10^4 cells/well/100 μL in 96-well plates. After overnight incubation, cells were treated with the drug-containing culture medium for 24, 48, or 72 hours, and cell viability was measured using CCK8 (Oriscience, Chengdu, China) at the indicated time points with Biotek Cytation 3 at a wavelength of 450 nm. The IC50 values were calculated using GraphPad Prism 9.4.1, and Calcusyn 2.0 software was employed to calculate the CI values.
# Raji-luc = test: Luciferase substrate viability assay; assay type: cell-based, human
# HDAC5 = HDAC5 (Homo sapiens, UniProt Q9UQL6); test: HDAC enzyme activity in vitro; assay type: biochemical
# [3] = Chronic toxicity test, intravenous; assay type: in vivo, Beagle dogs
# Procedure: In this study, the low, medium, and high dose groups were set at 0.3, 1, and 3 mg/kg, respectively. The excipient was set at a high dose of 45 mg/kg. In the low dose group, occasional vomiting was observed; in the medium dose group, symptoms included vomiting, loose stools, and dark red stools; in the high dose group, symptoms included vomiting and dark red stools. Four dogs (4/10, 2 females and 2 males) died between days 13 and 26 of the experiment. […] The primary toxic target organs or systems included the immune system (spleen, thymus, lymph nodes), digestive system (esophagus, liver, pancreas, intestine), kidneys, heart, lungs, trachea, testes, bone marrow, and injection site. There was a dose-dependent relationship, and recovery was observed during the recovery period. The highest no serious toxicity dose (HNSTD) was determined to be 1 mg/kg.
# [4] = Plasma protein binding, equilibrium dialysis; assay type: in vitro ADME; conditions: read-out: plasma protein binding rate (converted)
# Procedure: The plasma protein binding rate of Purinostat Mesylate was measured using equilibrium dialysis in Sprague-Dawley rats, Beagle dogs, crab-eating monkeys, and human plasma.
# [5] = system: cMYC-KRAS12V plasmacytoma; test: cMYC-KRAS12V primary plasmacytoma (PCT) mouse model; assay type: in vivo, BALB/c mice
# Procedure: The cMYC-KRAS12V-induced plasmacytoma mouse model in BALB/c (GemPharmatech Co., Ltd., Nanjing, China) was established as previously described.[33] On day 28 or 35 post bone marrow transplantation, recipients received various treatments. The 5TMM mouse model was established as previously described.[55] The 5TGM1-luc cells were intravenously injected into 6-week-old C57BL/KawRij mice (Harlan Co. Netherlands) with 2 × 10^6 cells per mouse. After three weeks, mice were treated with vehicle or PM 10 mg/kg. Serum Ca^2+ levels were monitored weekly for three weeks after the start of administration. Kaplan-Meier survival curves were generated for each treatment group. Additionally, the 5TMM mouse model studying PM’s effects on immune response and bone destruction involved randomizing mice into vehicle and PM (10 mg/kg) groups one week after inoculation. T cell subsets were analyzed by flow cytometry 24 h after a single dose and 1 month after vehicle or PM treatment. The mice were sacrificed after 1 month of treatment, and the bone destruction was detected by Micro-CT.
# [6] = system: double-expressing lymphoma (DEL) PDX; test: DEL PDX mouse model; assay type: in vivo, mice; conditions: 18 days; PM 5 mg/kg or 10 mg/kg
# Procedure: All animal studies were performed in accordance with the guidelines approved by the Institutional Animal Care and Use Committee of Sichuan University, Chengdu, China. Six- to seven-week-old female NOD-SCID mice were purchased from Beijing Vital River Laboratory Animal Technology Co., Ltd. (China). Mice received subcutaneous inoculation with 0.5 × 10^7 MM1S or RPMI-8226 cells, to establish xenograft models. Heterotopic PDX models were generated as previously described.[54] When tumors reached 150–250 mm^3, mice were treated with various compounds. PM and panobinostat were administered intravenously three times a week at 5 mg/kg in combination therapy. […] Tumor volume (tumor volume (mm^3) = π/6 × length × width^2) and body weights were measured every two days. At the end, tumor tissues were weighed, and antitumor activity was evaluated by the tumor inhibition rate = (1 − tumor weight of treatment group/tumor weight of vehicle group) × 100%.
# Karpas299 = test: Cell viability CCK8; assay type: cell-based; conditions: Homo sapiens, KARPAS-299; Karpas299, 72 h; no unit in table; read-out: Antiproliferative activity IC50
# Procedure: as §1
# Raji = test: Cell viability CCK8; assay type: cell-based; conditions: Homo sapiens, 72 h, no unit in table, read-out: Antiproliferative activity IC50
# Procedure: as §1
# RPMI-8226 = test: Cell viability CCK8; assay type: cell-based; conditions: Homo sapiens; RPMI-8226, 72 h; no unit in table; read-out: Antiproliferative activity IC50
# Procedure: as §1
# Daudi = test: Cell viability CCK8; assay type: cell-based; conditions: Homo sapiens, 72 h, no unit in table, read-out: Antiproliferative activity IC50
# Procedure: as §1
# RL = test: Cell viability CCK8; assay type: cell-based; conditions: Homo sapiens, 72 h, no unit in table, read-out: Antiproliferative activity IC50
# Procedure: as §1
# MM1S = test: Cell viability CCK8; assay type: cell-based; conditions: Homo sapiens, MM1.S, 72 h, no unit in table (b9: nM), read-out: Antiproliferative activity IC50
# Procedure: as §1
# KMS-11 = test: Cell viability CCK8; assay type: cell-based; conditions: Homo sapiens; KMS-11, 72 h; no unit in table; read-out: Antiproliferative activity IC50
# Procedure: as §1
# ARD = test: Cell viability CCK8; assay type: cell-based; conditions: Homo sapiens, 72 h, no unit in table, read-out: Antiproliferative activity IC50
# Procedure: as §1
# Sequence of HDAC5 (Q9UQL6 whole entry): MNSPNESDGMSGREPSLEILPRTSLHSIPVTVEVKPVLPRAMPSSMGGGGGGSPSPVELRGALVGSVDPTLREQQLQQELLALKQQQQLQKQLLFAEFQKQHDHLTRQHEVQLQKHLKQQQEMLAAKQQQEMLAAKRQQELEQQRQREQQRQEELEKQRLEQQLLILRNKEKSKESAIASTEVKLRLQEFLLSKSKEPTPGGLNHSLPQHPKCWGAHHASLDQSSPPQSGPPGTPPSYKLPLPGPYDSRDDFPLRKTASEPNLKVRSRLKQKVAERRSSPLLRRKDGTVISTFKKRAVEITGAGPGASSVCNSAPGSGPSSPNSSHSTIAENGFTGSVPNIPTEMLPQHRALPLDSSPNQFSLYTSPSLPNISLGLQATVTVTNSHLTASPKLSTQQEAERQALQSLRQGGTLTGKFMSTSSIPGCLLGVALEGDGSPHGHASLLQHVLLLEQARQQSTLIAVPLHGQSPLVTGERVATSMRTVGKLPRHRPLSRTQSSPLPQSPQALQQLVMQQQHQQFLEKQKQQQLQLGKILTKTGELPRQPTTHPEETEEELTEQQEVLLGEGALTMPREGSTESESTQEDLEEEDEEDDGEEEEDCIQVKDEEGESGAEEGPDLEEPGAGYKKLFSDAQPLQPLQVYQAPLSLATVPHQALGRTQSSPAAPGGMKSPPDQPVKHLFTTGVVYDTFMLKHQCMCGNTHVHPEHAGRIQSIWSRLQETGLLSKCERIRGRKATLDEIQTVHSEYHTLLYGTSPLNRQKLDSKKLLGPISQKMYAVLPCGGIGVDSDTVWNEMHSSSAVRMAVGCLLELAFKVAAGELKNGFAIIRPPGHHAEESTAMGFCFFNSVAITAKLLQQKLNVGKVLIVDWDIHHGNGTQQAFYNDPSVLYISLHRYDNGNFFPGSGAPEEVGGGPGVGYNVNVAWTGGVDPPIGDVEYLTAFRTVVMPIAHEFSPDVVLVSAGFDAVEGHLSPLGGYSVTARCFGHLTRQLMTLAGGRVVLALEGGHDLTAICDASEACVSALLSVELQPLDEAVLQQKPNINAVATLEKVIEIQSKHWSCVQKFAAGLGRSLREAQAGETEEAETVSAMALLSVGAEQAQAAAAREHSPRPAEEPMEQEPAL
smiles,measurement,setting,value
"CN(Cc1nc2c(N3CCOCC3)nc(-c3ccc(N)cc3)nc2n1C)c1ncc(C(=O)NO)cn1.CS(=O)(=O)O [PM, 2-(((2-(4-Aminophenyl)-9-methyl-6-(4-morpholinyl)-9H-purine-8-yl)methyl)methylamino)-N-hydroxy-5-pyrimidine-carboxamide Mesylate]",NOAEL,[1],< 3 mg/kg
same,NOAEL,[1]; both sexes,3 mg/kg
same,NOAEL,[1]; female,20 mg/kg
same,NOAEL,[1]; male,< 3 mg/kg
same,IC50,[2],< 5 nM
same,time until effect detectable,Raji-luc,36 h
same,IC50,HDAC5,426 nM
same,NOAEL,"[3]; both sexes, beagle, dog, in vivo, intravenous",< 0.3 mg/kg
same,highest no serious toxicity dose (HNSTD),"[3]; both, beagle, dog, in vivo, intravenous",1 mg/kg
same,dogs that died,"[3]; high dose 3 mg/kg, days 13 to 26",4/10
same,prolongation of QTc,"[3]; high dose group, male dogs",9.6%
same,fraction unbound at 0.2 µM,"[4]; Beagle, dog",0.169
same,fraction unbound at 2 µM,"[4]; Beagle, dog",0.164
same,fraction unbound at 10 µM,"[4]; Beagle, dog",0.167
same,fraction unbound at 0.2 µM,"[4]; Sprague-Dawley, rat",0.057
same,fraction unbound at 2 µM,"[4]; Sprague-Dawley, rat",0.045
same,fraction unbound at 10 µM,"[4]; Sprague-Dawley, rat",0.045
same,fraction unbound at 0.2 µM,[4]; human,0.097
same,fraction unbound at 2 µM,[4]; human,0.1
same,fraction unbound at 10 µM,[4]; human,0.096
same,fraction unbound at 0.2 µM,[4]; monkey,0.216
same,fraction unbound at 2 µM,[4]; monkey,0.205
same,fraction unbound at 10 µM,[4]; monkey,0.21
same,median survival time (MST),"[5]; 5 mg/kg, vehicle 47 days",68 days
same,median survival time (MST),"[5]; more severe PCT model, from day 35, PM 10 mg/kg, regimens per Table S9",59 days
same,complete remission,[6],all mice achieved complete remission
same,IC50,Karpas299,1.16 ± 0.14 nM
same,IC50,Raji,1.96 ± 0.18 nM
same,IC50,RPMI-8226,2.42 ± 0.4 nM
same,IC50,Daudi,0.73 ± 0.51 nM
same,IC50,RL,1.27 ± 0.14 nM
same,IC50,MM1S,0.47 ± 0.02 nM
same,IC50,KMS-11,1.99 ± 0.21 nM
same,IC50,ARD,0.42 ± 0.04 nM
